Data on 15 molecules can be found in publication PMC7667546 (Iranian Journal of Pharmaceutical Research : IJPR, 2020).

Structures are written as SMILES. In brackets after ≈: the same amount, converted by molar mass. Several values for one entry are separate records, joined by “and”; a condition that tells them apart may be missing. Identical values can stand only once. Counter-ions that a name gives are not always drawn. Like-named read-outs stand apart in the source and are kept apart here.

In assay [1] the target is T1, butyrylcholinesterase (BChE) (Homo sapiens, UniProt P06276).
T1 construct: purchased Sigma-Aldrich (Steinheim, Germany)
T1 sequence (P06276 29-602): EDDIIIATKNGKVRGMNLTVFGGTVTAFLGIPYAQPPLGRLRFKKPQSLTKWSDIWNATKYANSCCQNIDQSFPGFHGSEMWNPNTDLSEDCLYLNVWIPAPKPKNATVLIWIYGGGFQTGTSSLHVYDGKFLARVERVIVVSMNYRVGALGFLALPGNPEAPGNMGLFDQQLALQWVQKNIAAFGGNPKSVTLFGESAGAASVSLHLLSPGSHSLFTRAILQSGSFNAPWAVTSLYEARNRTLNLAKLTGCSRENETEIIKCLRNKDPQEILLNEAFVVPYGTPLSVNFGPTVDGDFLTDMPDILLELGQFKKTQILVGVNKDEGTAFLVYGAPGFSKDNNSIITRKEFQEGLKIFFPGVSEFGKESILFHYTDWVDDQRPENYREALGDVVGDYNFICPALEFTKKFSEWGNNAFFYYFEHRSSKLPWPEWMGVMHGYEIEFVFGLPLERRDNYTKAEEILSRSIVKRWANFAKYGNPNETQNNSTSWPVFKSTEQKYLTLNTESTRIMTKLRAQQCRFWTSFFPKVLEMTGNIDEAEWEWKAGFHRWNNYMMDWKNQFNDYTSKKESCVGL
As to the kind of experiment: Butyrylcholinesterase inhibition in vitro. It counts as biochemical. The settings on record: for inhibition at 10 µg/mL: read-out: Inhibition (%) BChE; for IC50: assayed at 100-0.1 µg/mL, mean ± S.D. As for the experimental part: (§1) Details of all biological activity and molecular modeling studies are given as supplementary material. The enzyme activities of the extracts were studied by observing urease, tyrosinase acetyl- and butyryl-cholinesterase inhibition activities ([22]-[25]). The ligands were then applied with partial atomic charges derived by ﬁtting Antechamber obtained by electronic structure calculation module in AMBER and assigned the AM1-BCC charges ([26]-[29]).
(§2) All compounds were assayed in-vitro against AChE and BChE at 100-0.1 µg/mL.

For assay [2], the target named is T2, acetylcholinesterase (AChE) (Homo sapiens, UniProt P22303).
T2 construct: purchased Sigma-Aldrich (Steinheim, Germany)
T2 sequence (P22303 32-614, species assumed): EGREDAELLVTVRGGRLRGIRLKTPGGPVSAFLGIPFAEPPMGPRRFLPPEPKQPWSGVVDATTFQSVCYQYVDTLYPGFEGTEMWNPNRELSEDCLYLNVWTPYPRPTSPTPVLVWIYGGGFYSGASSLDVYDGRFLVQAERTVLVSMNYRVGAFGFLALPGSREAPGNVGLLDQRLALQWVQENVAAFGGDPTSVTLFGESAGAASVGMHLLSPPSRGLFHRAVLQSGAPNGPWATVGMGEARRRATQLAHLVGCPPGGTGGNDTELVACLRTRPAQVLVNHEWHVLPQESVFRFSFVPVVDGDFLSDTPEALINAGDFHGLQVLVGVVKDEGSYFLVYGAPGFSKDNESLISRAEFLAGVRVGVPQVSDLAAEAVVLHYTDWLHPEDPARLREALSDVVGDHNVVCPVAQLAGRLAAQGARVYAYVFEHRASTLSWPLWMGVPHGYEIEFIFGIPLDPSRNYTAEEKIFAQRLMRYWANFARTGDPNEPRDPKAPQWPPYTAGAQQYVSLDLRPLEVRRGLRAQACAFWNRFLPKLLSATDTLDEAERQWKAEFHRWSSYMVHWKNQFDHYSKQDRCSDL
The experiment in a line: biochemical. As to conditions: for inhibition at 10 µg/mL: read-out: Inhibition (%) AChE. On the procedure: as §1, §2

The target of the next assay is T3, urease (Canavalia ensiformis, UniProt P07374).
T3 construct: purchased Sigma (Germany) Type III, powder, 15,000-50,000 units/g solid
T3 sequence (P07374 whole entry, looked up): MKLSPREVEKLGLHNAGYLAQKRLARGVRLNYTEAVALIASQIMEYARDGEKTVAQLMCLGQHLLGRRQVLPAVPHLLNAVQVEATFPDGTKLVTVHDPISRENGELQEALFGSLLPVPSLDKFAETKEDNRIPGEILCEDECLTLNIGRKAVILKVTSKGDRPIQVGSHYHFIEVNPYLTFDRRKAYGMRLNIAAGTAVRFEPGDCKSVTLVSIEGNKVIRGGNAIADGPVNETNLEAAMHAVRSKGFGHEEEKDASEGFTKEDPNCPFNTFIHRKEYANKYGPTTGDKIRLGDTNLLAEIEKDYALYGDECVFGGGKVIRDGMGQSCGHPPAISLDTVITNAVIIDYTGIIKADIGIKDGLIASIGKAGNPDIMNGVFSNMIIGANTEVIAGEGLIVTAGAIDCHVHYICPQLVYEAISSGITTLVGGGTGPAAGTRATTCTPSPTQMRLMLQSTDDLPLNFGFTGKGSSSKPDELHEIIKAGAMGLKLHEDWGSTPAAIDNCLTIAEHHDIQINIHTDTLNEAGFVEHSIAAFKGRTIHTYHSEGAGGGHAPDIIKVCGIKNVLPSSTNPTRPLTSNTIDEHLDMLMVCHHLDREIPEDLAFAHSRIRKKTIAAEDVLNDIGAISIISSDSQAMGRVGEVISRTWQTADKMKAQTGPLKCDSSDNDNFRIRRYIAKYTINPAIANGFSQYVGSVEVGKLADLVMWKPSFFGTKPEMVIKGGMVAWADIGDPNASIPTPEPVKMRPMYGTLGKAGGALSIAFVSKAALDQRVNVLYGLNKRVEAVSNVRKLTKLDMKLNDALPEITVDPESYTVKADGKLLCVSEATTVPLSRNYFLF
As to the kind of experiment: biochemical. Also on record: species or system Canavalia ensiformis (Jack bean). The settings on record: N.A. = not active; for Equivalent Urease (µg thiourea activity/mg compound): mean ± S.D.; for inhibition at 10 µg/mL: read-out: Inhibition (%) Urease, 10µg/mL; for inhibition at 10 µg/mL / Inhibition (%) Urease: mean ± S.D. of three measurements; for Inhibition (%) Urease: 10µg/mL.
Description: as §1

The subject of assay [3] is BChE. Also on record: method as in Ramirez et al. ([39]). The settings on record: ref Ramirez et al. ([39]); read-out: IC50 against BChE; cited from earlier work.
For another assay, the system named is tyrosinase. The experiment in a line: Tyrosinase inhibition in vitro. It counts as biochemical, mushroom. The settings on record: N.A. = not active; for Inhibition (%) Tyrosinase: 10µg/mL, mean ± S.D. of three measurements; for Equivalent Tyrosinase (µg kojic acid activity/mg compound): mean ± S.D.
Description: as §1

The test system of assay [4] is BChE. More on the design: method as in Senol et al (2017). The settings on record: ref Senol et al (2017); cited from earlier work.
Where [5] appears, read: 10µg/mL, mean ± S.D. of three measurements, N.A. = not active.
Where [6] appears, read: assayed at 100-0.1 µg/mL, mean ± S.D., N.A. = not active, read-out: IC50 AChE (converted).
The mark [7] stands for this setting: read-out: IC50 BChE (converted).

Turning to `COc1ccc2c3c1O[C@H]1C[C@@H](O)C=C[C@@]31CCN(C)C2` [Galanthamine, galanthamine hydrobromide, reference compound], the inhibition at 10 µg/mL in assay [1] is 67.52 ± 0.41%.

As for `CC(C)c1cc2c(c(O)c1O)[C@@]13CCCC(C)(C)[C@@H]1C[C@@H]2OC3=O` [Compound 9, Carnosol], the inhibition at 10 µg/mL was found to be 47.6 ± 23% in assay [2] (setting [5]), 16.1 ± 0.42% on urease and 57.99 ± 0.15% in assay [1] (setting [5]). Moreover, the IC50 in assay [2] (setting [6]) was 33.7 µM; in assay [1] (setting [7]) it was 11.9 µM and 12.5 µM; in the assay on BChE [3], 5.1 µM. Moreover, the “Equivalent Urease (µg thiourea activity/mg compound)” value (from here on “Equivalent Urease”) at urease was 26.60±0.03 µg thiourea activity/mg compou.

For `O=c1cc(CO)occ1O` [Kojic acid, reference compound], the “Inhibition (%) Tyrosinase” value in the assay with tyrosinase is given as 69.07±0.38%.

On to `COc1ccc(-c2cc(=O)c3c(O)c(OC)c(OC)cc3o2)cc1` [Compound 2, Salvigenin], for which the results for the inhibition at 10 µg/mL in assay [2] (setting [5]) and in assay [1] (setting [5]) were 22.72 ± 0.14% and 43.13 ± 0.21%, respectively. Further, the 50% inhibitory concentration (IC50) in assay [2] (setting [6]) was over 305 µM; in assay [1] (setting [7]), 34.9 µM.

In the case of `COc1cc2c(cc1OC)C(=O)C(CC1CCN(Cc3ccccc3)CC1)C2` (stereo not drawn) [donezepil, reference compound], the IC50 in the assay on BChE [3] is […].

Regarding `C[C@H]1COC2=C1C(=O)C(=O)c1c2ccc2c1CCCC2(C)C` [Compound 10, Cryptotanshinone], the IC50 in assay [2] is over 337 µM; in assay [1] (IC50 BChE), 95.9 µM. Moreover, the inhibition at 10 µg/mL in assay [2] turned out to be 17.46 ± 0.11%; at urease, 29.7 ± 1.16%; in assay [1], 35.16 ± 0.27%. For the same molecule, the “Equivalent Urease” value at urease is 103.05±0.11 µg thiourea activity/mg compou.

Take `Cc1cccc2c3c(ccc12)C1=C(C(=O)C3=O)[C@@H](C)CO1` [Compound 6, Dihydrotanshinone I]: the values for the IC50 in assay [2] and in assay [1] (IC50 BChE) were 5.39 µM and 1.8 µM, respectively. Moreover, the inhibition at 10 µg/mL in assay [2] is 64.54 ± 0.36%; in assay [1] it was 87.19 ± 0.23%. Besides, in the assay with BChE [4], the “IC50 value (BChE)” value is 1.71 µg/mL (≈ 6.14 µM).

For the molecule `O=C(/C=C/c1ccc(O)c(O)c1)O[C@H](Cc1ccc(O)c(O)c1)C(=O)O` [Compound 1, Rosmarinic acid], the inhibition at 10 µg/mL was found to be 20.2 ± 0.21% in assay [2] (setting [5]) and 42.76 ± 0.32% in assay [1]. For the same molecule, the IC50 in assay [2] (setting [6]) was over 278 µM; in assay [1] (IC50 BChE) it was 35.4 µM. Moreover, in the assay with tyrosinase, the “Inhibition (%) Tyrosinase” value is given as 12.11±0.02%. Besides, the “Equivalent Tyrosinase (µg kojic acid activity/mg compound)” value (“Equivalent Tyrosinase” below) in the assay with tyrosinase is 105.58±0.18 µg kojic acid activity/mg compound.

As to `Cc1coc2c1C(=O)C(=O)c1c-2ccc2c1CCCC2(C)C` [Compound 5, Tanshinone IIA], the IC50 in assay [2] (setting [6]) was over 340 µM; in assay [1] (setting [7]), 3.8 µM. The inhibition at 10 µg/mL in assay [2] worked out at 32.3 ± 0.44%; on urease, 14.3 ± 0.42%; in assay [1], 66.3 ± 1.18%. The “Equivalent Urease” value at urease is listed as 16.12±0.01 µg thiourea activity/mg compou.

On to `NC(N)=S` [Thiourea, thiourea, reference compound], for which, on urease, the “Inhibition (%) Urease” value is 75.14±1.34%.

As for `O=C(/C=C/c1ccc(O)c(O)c1/C=C/c1ccc(O)c(O)c1)O[C@H](Cc1ccc(O)c(O)c1)C(=O)O` [Compound 4, Salvianolic acid A], the IC50 in assay [2] was 46.6 µM; in assay [1] (IC50 BChE), 97.7 µM. The inhibition at 10 µg/mL in assay [2] (setting [5]) stood at 38.82 ± 0.12%; in assay [1] (setting [5]), 27.49 ± 0.08%.

On to `Cc1coc2c1C(=O)C(=O)c1c-2ccc2c(C)cccc12` [Compound 7, Tanshinone I], for which, in assay [2], it took 138 µM to reach half-maximal inhibition (IC50) and the inhibition at 10 µg/mL was 31.3 ± 0.72%. For the same molecule, on urease, the “Equivalent Urease” value is listed as 174.73±0.19 µg thiourea activity/mg compou and the inhibition at 10 µg/mL stood at 42.4 ± 0.85%. In the assay on tyrosinase, the “Inhibition (%) Tyrosinase” value is on record as 39.82±1.16% and the “Equivalent Tyrosinase” value is reported as 372.86±2.47 µg kojic acid activity/mg compound. The molecule also showed an IC50 in assay [1] (IC50 BChE) of 100 µM. Moreover, in assay [1], the inhibition at 10 µg/mL worked out at 33 ± 0.86%.

On to `O=C(O)C(O)Cc1ccc(O)c(O)c1` (stereo not drawn) [Compound 11, Danshensu Salt], for which, in the assay on tyrosinase, the “Inhibition (%) Tyrosinase” value was determined as 6.20±0.08% and the “Equivalent Tyrosinase” value was 48.67±0.23 µg kojic acid activity/mg compound. For the same molecule, in assay [1] (IC50 BChE), the 50% inhibitory concentration (IC50) is 122 µM. In assay [1], the inhibition at 10 µg/mL is 35.37 ± 0.13%.

Take `CC(C)c1cc2c(c(O)c1O)[C@@]1(C(=O)O)CCCC(C)(C)[C@@H]1CC2` [Compound 8, Carnosic Acid]: the inhibition at 10 µg/mL in assay [2] (setting [5]) is 38 ± 0.96%; at urease, 22.42 ± 0.15%; in assay [1] it was 58.5 ± 1.18%. Also, the IC50 in assay [2] (setting [6]) was 95.7 µM; in assay [1] (IC50 BChE), 12.4 µM. Also, the “Equivalent Urease” value at urease is reported as 62.12±0.07 µg thiourea activity/mg compou. For the same molecule, the “Inhibition (%) Tyrosinase” value in the assay on tyrosinase came out at 5.92±0.06%. Further, in the assay on tyrosinase, the “Equivalent Tyrosinase” value is 45.93±0.71 µg kojic acid activity/mg compound.

For the molecule `O=C(/C=C/c1ccc(O)c2c1[C@H](C(=O)O[C@H](Cc1ccc(O)c(O)c1)C(=O)O)[C@@H](c1ccc(O)c(O)c1)O2)O[C@H](Cc1ccc(O)c(O)c1)C(=O)O` [Compound 3, Salvianolic acid B], the IC50 in assay [2] was over 139 µM; in assay [1] (IC50 BChE), 14.6 µM. Moreover, the inhibition at 10 µg/mL turned out to be 10.11 ± 0.08% in assay [2] (setting [5]), 49.83 ± 0.27% at urease and 49.83 ± 0.27% in assay [1] (setting [5]). The “Inhibition (%) Urease” value at urease is 45.52±0.68%. In addition, on urease, the “Equivalent Urease” value is 192.26±0.21 µg thiourea activity/mg compou.

For orientation: IC50 means the concentration that gives 50% inhibition.
